The values below come from BindingDB's records for PubMed 2795469 (Ciba-Geigy, 1989).

The Ki is the equilibrium dissociation constant of an inhibitor or competing ligand from its target. A high value points to a looser hold on the target.

This assay addresses Adenosine receptor A2a (Rattus norvegicus, UniProt P30543).

Adenosine receptor A2a, sequence (P30543 whole entry): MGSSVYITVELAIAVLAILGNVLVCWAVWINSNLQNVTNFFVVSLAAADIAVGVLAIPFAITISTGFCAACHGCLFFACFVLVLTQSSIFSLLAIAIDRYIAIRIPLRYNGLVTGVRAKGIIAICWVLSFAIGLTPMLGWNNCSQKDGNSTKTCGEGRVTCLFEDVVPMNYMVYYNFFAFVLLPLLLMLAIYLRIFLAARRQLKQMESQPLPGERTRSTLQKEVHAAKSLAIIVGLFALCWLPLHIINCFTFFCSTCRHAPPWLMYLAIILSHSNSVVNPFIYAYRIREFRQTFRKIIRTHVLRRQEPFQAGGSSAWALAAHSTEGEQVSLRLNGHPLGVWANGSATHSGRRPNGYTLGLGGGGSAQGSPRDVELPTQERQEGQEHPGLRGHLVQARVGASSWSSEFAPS

Compound `Nc1nc(Nc2ccccc2)nc2c1ncn2[C@@H]1O[C@H](CO)[C@H](O)C1O` (stereo partly specified) [(CV 1808) 2-(6-Amino-2-phenylamino-purin-9-yl)-5-hydroxymethyl-tetrahydro-furan-3,4-diol] registered a Ki of 115 nM. In other words, the sub-micromolar range.
